Experimental data published in ChEMBL document CHEMBL1201862, “PubChem BioAssay data set” (2004).
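Results reflect a 48-hour exposure of cells in 96-well plates to compound at five concentrations. At the GI50, growth is halved.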 Activity calls are given as the source filed them. No stated cut-off is given here; in the data, active = GI50 up to about 1.1 µM and inactive = higher.

Experiments:
Assay in all cases: growth of human tumour cells (NCI), 48 h
ACHN = tested on: ACHN
HL-60 = tested on: HL-60
OVCAR-3 = tested on: OVCAR-3
MDA-N = tested on: MDA-N
UACC-257 = tested on: UACC-257
MDA-MB-231 = tested on: MDA-MB-231
SF-539 = tested on: SF-539
OVCAR-8 = tested on: OVCAR-8
NCI-H522 = tested on: NCI-H522
COLO 205 = tested on: COLO 205
HOP-92 = tested on: HOP-92
CAKI-1 = tested on: CAKI-1
HCT-116 = tested on: HCT-116
SK-MEL-2 = tested on: SK-MEL-2
BT-549 = tested on: BT-549
NCI/ADR-RES = tested on: NCI/ADR-RES
U-251 = tested on: U-251
SNB-75 = tested on: SNB-75
UO-31 = tested on: UO-31
SK-OV-3 = tested on: SK-OV-3

SMILES	GI50 (ACHN)	GI50 (HL-60)	GI50 (OVCAR-3)	GI50 (MDA-N)	GI50 (UACC-257)	GI50 (MDA-MB-231)	GI50 (SF-539)	GI50 (OVCAR-8)	GI50 (NCI-H522)	GI50 (COLO 205)	GI50 (HOP-92)	GI50 (CAKI-1)	GI50 (HCT-116)	GI50 (SK-MEL-2)	GI50 (BT-549)	GI50 (NCI/ADR-RES)	GI50 (U-251)	GI50 (SNB-75)	GI50 (UO-31)	GI50 (SK-OV-3)
C/C(=N/NC(=S)N(C)C)c1ccccc1O	6.31 µM (inactive)	> 22.5 µM (inactive)	2.97 µM (inactive)	11.9 µM (inactive)	17.1 µM (inactive)	35.8 µM (inactive)	8.91 µM (inactive)	5.22 µM (inactive)	9.86 µM (inactive)	13.7 µM (inactive)	> 75.2 µM (inactive)	25.7 µM (inactive)	3.33 µM (inactive)	11.9 µM (inactive)	10.4 µM (inactive)	3.53 µM (inactive)	6.35 µM (inactive)	6.82 µM (inactive)	8.67 µM (inactive)	> 44.5 µM (inactive)
O=C1C(OC(=O)c2ccccc2)=C(c2ccc(O)cc2)C(=O)C(OC(=O)c2ccccc2)=C1c1ccc(O)cc1	> 100 µM (inactive)	> 100 µM (inactive)	38.1 µM (inactive)	> 100 µM (inactive)	> 100 µM (inactive)	> 100 µM (inactive)	> 100 µM (inactive)	> 100 µM (inactive)	> 100 µM (inactive)	> 100 µM (inactive)	> 100 µM (inactive)	> 100 µM (inactive)	> 100 µM (inactive)	32 µM (inactive)	> 100 µM (inactive)	> 100 µM (inactive)	40.5 µM (inactive)	78.5 µM (inactive)	> 100 µM (inactive)	56.2 µM (inactive)
CC1=CC(=O)c2ccccc2C1=O [MENADIONE]	3.36 µM (inactive)	2 µM (inactive)	11.1 µM (inactive)	0.91 µM (active)	4.17 µM (inactive)	5.06 µM (inactive)	3.61 µM (inactive)	10.1 µM (inactive)	5.06 µM (inactive)	17.7 µM (inactive)	1.55 µM (inactive)	16.1 µM (inactive)	2 µM (inactive)	8.3 µM (inactive)	12.3 µM (inactive)	11.9 µM (inactive)	13.4 µM (inactive)	10.2 µM (inactive)	2.65 µM (inactive)	13 µM (inactive)
Cc1cnc2nc(-c3ccc(Cl)cc3)cc(O)c2c1	6.21 µM (inactive)	1.87 µM (inactive)	2.95 µM (inactive)	0.959 µM (active)	11.5 µM (inactive)	5.27 µM (inactive)	2.37 µM (inactive)	9.14 µM (inactive)	5.47 µM (inactive)	4.31 µM (inactive)	2.32 µM (inactive)	5.33 µM (inactive)	3.84 µM (inactive)	5.82 µM (inactive)	9.95 µM (inactive)	6.1 µM (inactive)	3.9 µM (inactive)	5.14 µM (inactive)	8.59 µM (inactive)	18.4 µM (inactive)
Cn1nnc2c(C(N)=S)ncn2c1=O	> 100 µM (inactive)	> 100 µM (inactive)	> 100 µM (inactive)	> 100 µM (inactive)	> 100 µM (inactive)	> 100 µM (inactive)	> 100 µM (inactive)	> 100 µM (inactive)	> 100 µM (inactive)	> 100 µM (inactive)	> 100 µM (inactive)	> 100 µM (inactive)	> 100 µM (inactive)	> 100 µM (inactive)	> 100 µM (inactive)	> 100 µM (inactive)	> 100 µM (inactive)	> 100 µM (inactive)	> 100 µM (inactive)	> 100 µM (inactive)
O=C(O)/C=C/C(=O)Nc1nc[nH]n1	> 100 µM (inactive)	0.034 µM (active)	> 100 µM (inactive)	> 100 µM (inactive)	> 100 µM (inactive)	> 100 µM (inactive)	> 100 µM (inactive)	> 100 µM (inactive)	> 100 µM (inactive)	> 100 µM (inactive)	> 100 µM (inactive)	> 100 µM (inactive)	> 100 µM (inactive)	> 100 µM (inactive)	> 100 µM (inactive)	> 100 µM (inactive)	> 100 µM (inactive)	> 100 µM (inactive)	> 100 µM (inactive)	> 100 µM (inactive)
COc1ccc2c(NCCCCCCNc3c4ccccc4nc4cc(OC)ccc34)c3ccccc3nc2c1	0.163 µM (active)	0.0923 µM (active)	0.162 µM (active)	0.142 µM (active)	0.731 µM (active)	0.067 µM (active)	0.0929 µM (active)	0.0853 µM (active)	0.0624 µM (active)	0.0753 µM (active)	0.1 µM (active)	0.367 µM (active)	0.0451 µM (active)	0.364 µM (active)	1.3 µM (inactive)	2.72 µM (inactive)	0.0728 µM (active)	0.175 µM (active)	12.9 µM (inactive)	0.245 µM (active)
